Experimental data taken from patent US8987250B2 (Gilead Sciences, Inc., priority 2012, dated 2015).
Where two headings read alike, the source gives them in different places.

System: HIV-IIIb
Test: Test A: Antiviral Assay in MT4 Cells
Assay type: cell-based
Conditions: Human immunodeficiency virus 1, IIIB, MT4, 120 h
How it was run: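 MT-4 cells pre-infected with HIV-IIIb (0.004 m.o.i.) at 37 °C, then exposed to 3-fold serial compound dilutions (10 concentrations, quadruplicate) in RPMI 1640/10% FBS. After 5 days at 37 °C, viability read by CellTiter-Glo luminescence.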

[1] = Table 2, MT-4 cells infected with HIV-IIIb, 5 days of incubation, CellTiter-Glo, read-out: EC50

| SMILES | EC50 [1] | EC50 |
| --- | --- | --- |
| Cc1cc2nc(-c3cnc4c(c3)c(-c3cccnc3)cn4C)sc2c(-c2ccc(Cl)cc2)c1[C@H](OC(C)(C)C)C(=O)O [Compound 249, (S)-2-tert-butoxy-2-(7-(4-chlorophenyl)-5-methyl-2-(1-methyl-3-(pyridin-3-yl)-1H-pyrrolo[2,3-b]pyridin-5-yl)benzo[d]thiazol-6-yl)acetic acid] | 0.007 µM |  |
| Cc1cc2nc(N3CCn4c(nnc4C(F)(F)F)C3)sc2c(-c2ccc(Cl)cc2)c1[C@H](OC(C)(C)C)C(=O)O [Compound 250, (S)-2-tert-butoxy-2-(7-(4-chlorophenyl)-5-methyl-2-(3-(trifluoromethyl)-5,6-dihydro-[1,2,4]triazolo[4,3-a]pyrazin-7(8H)-yl)benzo[d]thiazol-6-yl)acetic acid] |  | 0.235 µM |
| Cc1cc2nc(-c3ccc4c(c3)c(C)nn4C)sc2c(-c2ccc(Cl)cc2)c1[C@H](OC(C)(C)C)C(=O)O [Compound 254, (S)-2-tert-butoxy-2-(7-(4-chlorophenyl)-2-(1,3-dimethyl-1H-indazol-5-yl)-5-methylbenzo[d]thiazol-6-yl)acetic acid] | 0.008 µM |  |
| Cc1cc2nc(-c3cc(-c4ccc5c(c4)c(C)nn5C)nc(N4CCN(C)CC4)c3)sc2c(-c2ccc(Cl)cc2)c1[C@H](OC(C)(C)C)C(=O)O [Compound 255, (S)-2-tert-butoxy-2-(7-(4-chlorophenyl)-2-(2-(1,3-dimethyl-1H-indazol-5-yl)-6-(4-methylpiperazin-1-yl)pyridin-4-yl)-5-methylbenzo[d]thiazol-6-yl)acetic acid] | 0.012 µM |  |
| Cc1cc2nc(-c3ccc4c(c3)C(C)(C)C(=O)N4C)sc2c(-c2ccc(Cl)cc2)c1[C@H](OC(C)(C)C)C(=O)O [Compound 256, (S)-2-tert-butoxy-2-(7-(4-chlorophenyl)-5-methyl-2-(1,3,3-trimethyl-2-oxoindolin-5-yl)benzo[d]thiazol-6-yl)acetic acid] | 0.009 µM |  |
| Cc1cc2nc(-c3ccc4c(c3)c(N(C)C)nn4C)sc2c(-c2ccc(Cl)cc2)c1[C@H](OC(C)(C)C)C(=O)O [Compound 258, (S)-2-tert-butoxy-2-(7-(4-chlorophenyl)-2-(3-(dimethylamino)-1-methyl-1H-indazol-5-yl)-5-methylbenzo[d]thiazol-6-yl)acetic acid] | 0.013 µM |  |
| Cc1cc2nc(-c3ccc4c(N5CCN(C)CC5)nn(C)c4c3)sc2c(-c2ccc(Cl)cc2)c1[C@H](OC(C)(C)C)C(=O)O [Compound 259, (S)-2-tert-butoxy-2-(7-(4-chlorophenyl)-5-methyl-2-(1-methyl-3-(4-methylpiperazin-1-yl)-1H-indazol-6-yl)benzo[d]thiazol-6-yl)acetic acid] | 0.012 µM |  |
| Cc1cc2nc(-c3ccc4c(c3)c(C3CC3)nn4C)sc2c(-c2ccc(Cl)cc2)c1[C@H](OC(C)(C)C)C(=O)O [Compound 264, (S)-2-tert-butoxy-2-(7-(4-chlorophenyl)-2-(3-cyclopropyl-1-methyl-1H-indazol-5-yl)-5-methylbenzo[d]thiazol-6-yl)acetic acid] | 0.017 µM |  |
| Cc1cc2nc(-c3ccc4nn(C)c(C)c4c3)sc2c(-c2ccc(Cl)cc2)c1[C@H](OC(C)(C)C)C(=O)O [Compound 265, (S)-2-tert-butoxy-2-(7-(4-chlorophenyl)-2-(2,3-dimethyl-2H-indazol-5-yl)-5-methylbenzo[d]thiazol-6-yl)acetic acid] | 0.015 µM |  |
| Cc1cc2nc(-c3ccc4c(N)nn(C)c4c3)sc2c(-c2ccc(Cl)cc2)c1[C@H](OC(C)(C)C)C(=O)O [Compound 266, (S)-2-(2-(3-amino-1-methyl-1H-indazol-6-yl)-7-(4-chlorophenyl)-5-methylbenzo[d]thiazol-6-yl)-2-tert-butoxyacetic acid] | 0.01 µM |  |
| Cc1cc2nc(-c3ccc4c(C5CCN(C)CC5)nn(C)c4c3)sc2c(-c2ccc(Cl)cc2)c1[C@H](OC(C)(C)C)C(=O)O [Compound 267, (S)-2-tert-butoxy-2-(7-(4-chlorophenyl)-5-methyl-2-(1-methyl-3-(1-methylpiperidin-4-yl)-1H-indazol-6-yl)benzo[d]thiazol-6-yl)acetic acid] | 0.011 µM |  |
| Cc1cc2nc(-c3ccc4c(c3)c(C3CCN(C)CC3)nn4C)sc2c(-c2ccc(Cl)cc2)c1[C@H](OC(C)(C)C)C(=O)O [Compound 268, (S)-2-tert-butoxy-2-(7-(4-chlorophenyl)-5-methyl-2-(1-methyl-3-(1-methylpiperidin-4-yl)-1H-indazol-5-yl)benzo[d]thiazol-6-yl)acetic acid] | 0.012 µM |  |
| Cc1cc2nc(-c3ccc4c(c3)c(N3CCN(C(C)C)CC3)nn4C)sc2c(-c2ccc(Cl)cc2)c1[C@H](OC(C)(C)C)C(=O)O [Compound 269, (S)-2-tert-butoxy-2-(7-(4-chlorophenyl)-2-(3-(4-isopropylpiperazin-1-yl)-1-methyl-1H-indazol-5-yl)-5-methylbenzo[d]thiazol-6-yl)acetic acid] | 0.012 µM |  |
| Cc1cc(C)n(-c2cccc(-c3nc4cc(C)c([C@H](OC(C)(C)C)C(=O)O)c(-c5ccc(Cl)cc5)c4s3)c2)n1 [Compound 272, (S)-2-tert-butoxy-2-(7-(4-chlorophenyl)-2-(3-(3,5-dimethyl-1H-pyrazol-1-yl)phenyl)-5-methylbenzo[d]thiazol-6-yl)acetic acid] | 0.078 µM |  |
| Cc1cc2nc(-n3ccnc(-c4ccc5c(cnn5C)c4)c3=O)sc2c(-c2ccc(Cl)cc2)c1[C@H](OC(C)(C)C)C(=O)O [Compound 273, (S)-2-tert-butoxy-2-(7-(4-chlorophenyl)-5-methyl-2-(3-(1-methyl-1H-indazol-5-yl)-2-oxopyrazin-1(2H)-yl)benzo[d]thiazol-6-yl)acetic acid] | 0.053 µM |  |
| Cc1cc2nc(N3CCN(C)C(c4ccc5c(cnn5C)c4)C3=O)sc2c(-c2ccc(Cl)cc2)c1[C@H](OC(C)(C)C)C(=O)O (stereo partly drawn) [Compound 274, (2S)-2-tert-butoxy-2-(7-(4-chlorophenyl)-5-methyl-2-(4-methyl-3-(1-methyl-1H-indazol-5-yl)-2-oxopiperazin-1-yl)benzo[d]thiazol-6-yl)acetic acid] | 0.031 µM |  |
| Cc1cc2nc(N3CCNC(c4ccc5c(cnn5C)c4)C3=O)sc2c(-c2ccc(Cl)cc2)c1[C@H](OC(C)(C)C)C(=O)O (stereo partly drawn) [Compound 275, (2S)-2-tert-butoxy-2-(7-(4-chlorophenyl)-5-methyl-2-(3-(1-methyl-1H-indazol-5-yl)-2-oxopiperazin-1-yl)benzo[d]thiazol-6-yl)acetic acid] | 0.021 µM |  |
| Cc1cc2nc(N3CCN(C(=O)OC(C)(C)C)C(c4ccc5c(cnn5C)c4)C3)sc2c(-c2ccc(Cl)cc2)c1[C@H](OC(C)(C)C)C(=O)O (stereo partly drawn) [Compound 276, (2S)-2-tert-butoxy-2-(2-(4-(tert-butoxycarbonyl)-3-(1-methyl-1H-indazol-5-yl)piperazin-1-yl)-7-(4-chlorophenyl)-5-methylbenzo[d]thiazol-6-yl)acetic acid] | 0.037 µM |  |
| Cc1cc2nc(N3CCNC(c4ccc5c(cnn5C)c4)C3)sc2c(-c2ccc(Cl)cc2)c1[C@H](OC(C)(C)C)C(=O)O (stereo partly drawn) [Compound 277, (2S)-2-tert-butoxy-2-(7-(4-chlorophenyl)-5-methyl-2-(3-(1-methyl-1H-indazol-5-yl)piperazin-1-yl)benzo[d]thiazol-6-yl)acetic acid] | 0.026 µM |  |
| Cc1cc2nc(N3CCN(C(C)C)C(c4ccc5c(cnn5C)c4)C3)sc2c(-c2ccc(Cl)cc2)c1[C@H](OC(C)(C)C)C(=O)O (stereo partly drawn) [Compound 279, (2S)-2-tert-butoxy-2-(7-(4-chlorophenyl)-2-(4-isopropyl-3-(1-methyl-1H-indazol-5-yl)piperazin-1-yl)-5-methylbenzo[d]thiazol-6-yl)acetic acid] | 0.016 µM |  |
| Cc1cc2nc(-c3cccc(-c4cnc(=O)n(C)c4)c3)sc2c(-c2ccc(Cl)cc2)c1[C@H](OC(C)(C)C)C(=O)O [Compound 280, (S)-2-tert-butoxy-2-(7-(4-chlorophenyl)-5-methyl-2-(3-(1-methyl-2-oxo-1,2-dihydropyrimidin-5-yl)phenyl)benzo[d]thiazol-6-yl)acetic acid] | 0.248 µM |  |
| Cc1cc2nc(-c3nccc(N4CCN(C)CC4)n3)sc2c(-c2ccc(Cl)cc2)c1[C@H](OC(C)(C)C)C(=O)O [Compound 281, (S)-2-tert-butoxy-2-(7-(4-chlorophenyl)-5-methyl-2-(4-(4-methylpiperazin-1-yl)pyrimidin-2-yl)benzo[d]thiazol-6-yl)acetic acid] | 0.031 µM |  |
| Cc1cc2nc(-c3cncc(N4CCN(C)CC4)n3)sc2c(-c2ccc(Cl)cc2)c1[C@H](OC(C)(C)C)C(=O)O [Compound 282, (S)-2-tert-butoxy-2-(7-(4-chlorophenyl)-5-methyl-2-(6-(4-methylpiperazin-1-yl)pyrazin-2-yl)benzo[d]thiazol-6-yl)acetic acid] | 0.003 µM |  |
| Cc1cc2nc(-c3ccc4ncn(C)c4c3)sc2c(-c2ccc(Cl)cc2)c1[C@H](OC(C)(C)C)C(=O)O [Compound 283, (S)-2-tert-butoxy-2-(7-(4-chlorophenyl)-5-methyl-2-(1-methyl-1H-benzo[d]imidazol-6-yl)benzo[d]thiazol-6-yl)acetic acid] | 0.051 µM |  |
| Cc1cc2nc(-c3ccc4c(c3)n(C)c(=O)n4C)sc2c(-c2ccc(Cl)cc2)c1[C@H](OC(C)(C)C)C(=O)O [Compound 286, (S)-2-(tert-butoxy)-2-(7-(4-chlorophenyl)-2-(1,3-dimethyl-2-oxo-2,3-dihydro-1H-benzo[d]imidazol-5-yl)-5-methylbenzo[d]thiazol-6-yl)acetic acid] | 0.01 µM |  |
| Cc1cc2nc(-c3ccc4nc[nH]c4c3)sc2c(-c2ccc(Cl)cc2)c1[C@H](OC(C)(C)C)C(=O)O [Compound 287, (S)-2-(2-(1H-benzo[d]imidazol-6-yl)-7-(4-chlorophenyl)-5-methylbenzo[d]thiazol-6-yl)-2-(tert-butoxy)acetic acid] | 0.113 µM |  |
| COc1cnc(-c2ccc3c(cnn3C)c2)cc1-c1nc2cc(C)c([C@H](OC(C)(C)C)C(=O)O)c(-c3ccc(Cl)cc3)c2s1 [Compound 288, (S)-2-(tert-butoxy)-2-(7-(4-chlorophenyl)-2-(5-methoxy-2-(1-methyl-1H-indazol-5-yl)pyridin-4-yl)-5-methylbenzo[d]thiazol-6-yl)acetic acid] | 0.065 µM |  |
